Measurements taken from patent publication US9079913B2, “Spiro-oxindole MDM2 antagonists” (The Regents of the University of Michigan, priority 2009, dated 2015).
Several values for one entry are separate records, joined by “and”; a condition that tells them apart may be missing. Equal values may be shown once.

What was measured:
[1] = In vitro microsomal stability, rat; type: in vitro ADME; conditions: for Microsomal stability, % remaining: Rat microsomes
[2] = In vitro microsomal stability, dog; type: in vitro ADME; conditions: for Microsomal stability, % remaining: Dog microsomes
[3] = Microsomal stability study, negative control incubation; type: in vitro ADME
[4] = Pharmacokinetic studies in rats; type: in vivo, rat; conditions: for Plasma Concentration: male rat
Protocol: Pharmacokinetic studies on MDM2 inhibitors were carried out in rat. For comparison, the MDM2 inhibitor, AT-219, was also studied.

Substance: MI-219
- Microsomal stability, % remaining ([1]; 0 min): 100.00%
- Microsomal stability, % remaining ([1]; 5 min): 58.19%
- Microsomal stability, % remaining ([1]; 10 min): 40.59%
- Microsomal stability, % remaining ([1]; 15 min): 28.11%
- Microsomal stability, % remaining ([1]; 30 min): 18.61%
- Microsomal stability, % remaining ([1]; 45 min): 18.42%
- Microsomal stability, % remaining ([1]; 60 min): 18.38%
- % of compound remaining when incubated in rat liver microsomes ([1]; Table 16, 0 min): 100%
- % of compound remaining when incubated in rat liver microsomes ([1]; Table 16, 4 min): 76.6%
- % of compound remaining when incubated in rat liver microsomes ([1]; Table 16, 6 min): 64.3%
- % of compound remaining when incubated in rat liver microsomes ([1]; Table 16, 10 min): 57.3%
- % of compound remaining when incubated in rat liver microsomes ([1]; Table 16, 15 min): 51.9%
- % of compound remaining when incubated in rat liver microsomes ([1]; Table 16, 30 min): 49.3%
- % of compound remaining when incubated in rat liver microsomes ([1]; Table 17, 0 min): 100%
- % of compound remaining when incubated in rat liver microsomes ([1]; Table 17, 4 min): 76.6%
- % of compound remaining when incubated in rat liver microsomes ([1]; Table 17, 6 min): 64.3%
- % of compound remaining when incubated in rat liver microsomes ([1]; Table 17, 10 min): 57.3%
- % of compound remaining when incubated in rat liver microsomes ([1]; Table 17, 15 min): 51.9%
- % of compound remaining when incubated in rat liver microsomes ([1]; Table 17, 30 min): 49.3%
- microsomal stability (in words) ([1]; rat liver microsomes): metabolized fairly rapidly
- Microsomal stability, % remaining ([2]; 0 min): 100.00%
- Microsomal stability, % remaining ([2]; 5 min): 83.38%
- Microsomal stability, % remaining ([2]; 10 min): 71.22%
- Microsomal stability, % remaining ([2]; 15 min): 71.51%
- Microsomal stability, % remaining ([2]; 30 min): 54.96%
- Microsomal stability, % remaining ([2]; 45 min): 33.81%
- Microsomal stability, % remaining ([2]; 60 min): 32.52%
- microsomal stability (in words) ([2]; dog microsomes): metabolized fairly rapidly
- Microsomal stability, % remaining ([3]; 0 min): 100.00%
- Microsomal stability, % remaining ([3]; 5 min): 102.63%
- Microsomal stability, % remaining ([3]; 10 min): 105.25%
- Microsomal stability, % remaining ([3]; 15 min): 109.19%
- Microsomal stability, % remaining ([3]; 30 min): 111.07%
- Microsomal stability, % remaining ([3]; 45 min): 104.13%
- Microsomal stability, % remaining ([3]; 60 min): 109.01%
- Plasma Concentration ([4]; IV 5 mg/kg, 0.083 hr, animals M1, M2 and Mean): 5873.30 ng/mL and 5229.30 ng/mL
- Plasma Concentration ([4]; IV 5 mg/kg, 0.083 hr, animals M1, M2 and Mean, mean): 5551.30 ng/mL
- Plasma Concentration ([4]; IV 5 mg/kg, 0.5 hr, animals and Mean): 693.45 ng/mL and 548.39 ng/mL
- Plasma Concentration ([4]; IV 5 mg/kg, 0.5 hr, animals and Mean, mean): 620.92 ng/mL
- Plasma Concentration ([4]; IV 5 mg/kg, 1 hr, animals and Mean): 330.71 ng/mL and 344.66 ng/mL
- Plasma Concentration ([4]; IV 5 mg/kg, 1 hr, animals and Mean, mean): 337.68 ng/mL
- Plasma Concentration ([4]; IV 5 mg/kg, 2 hr, animals and Mean): 164.88 ng/mL and 134.91 ng/mL
- Plasma Concentration ([4]; IV 5 mg/kg, 2 hr, animals and Mean, mean): 149.90 ng/mL
- Plasma Concentration ([4]; IV 5 mg/kg, 4 hr, animals and Mean): 49.27 ng/mL and 56.50 ng/mL
- Plasma Concentration ([4]; IV 5 mg/kg, 4 hr, animals and Mean, mean): 52.88 ng/mL
- Plasma Concentration ([4]; IV 5 mg/kg, 6 hr, animals and Mean): 24.18 ng/mL and 32.66 ng/mL
- Plasma Concentration ([4]; IV 5 mg/kg, 6 hr, animals and Mean, mean): 28.42 ng/mL
- Plasma Concentration ([4]; IV 5 mg/kg, 8 hr, animals and Mean): 11.05 ng/mL and 18.98 ng/mL
- Plasma Concentration ([4]; IV 5 mg/kg, 8 hr, animals and Mean, mean): 15.02 ng/mL
- Plasma Concentration ([4]; IV 5 mg/kg, 24 hr, animals and Mean): 1.86 ng/mL and 1.28 ng/mL
- Plasma Concentration ([4]; IV 5 mg/kg, 24 hr, animals and Mean, mean): 1.57 ng/mL
- Plasma Concentration ([4]; PO 25 mg/kg, 0.083 hr, animals M6-M8 and Mean): 1526.57 ng/mL and 1380.03 ng/mL and 1642.42 ng/mL
- Plasma Concentration ([4]; PO 25 mg/kg, 0.083 hr, animals M6-M8 and Mean, mean): 1516.34 ng/mL
- Plasma Concentration ([4]; PO 25 mg/kg, 0.5 hr, animals and Mean): 3332.19 ng/mL and 2500.25 ng/mL and 4278.56 ng/mL
- Plasma Concentration ([4]; PO 25 mg/kg, 0.5 hr, animals and Mean, mean): 3370.33 ng/mL
- Plasma Concentration ([4]; PO 25 mg/kg, 1 hr, animals and Mean): 3101.06 ng/mL and 2957.44 ng/mL and 1779.31 ng/mL
- Plasma Concentration ([4]; PO 25 mg/kg, 1 hr, animals and Mean, mean): 2612.60 ng/mL
- Plasma Concentration ([4]; PO 25 mg/kg, 2 hr, animals and Mean): 1064.21 ng/mL and 1534.41 ng/mL and 1342.18 ng/mL
- Plasma Concentration ([4]; PO 25 mg/kg, 2 hr, animals and Mean, mean): 1313.60 ng/mL
- Plasma Concentration ([4]; PO 25 mg/kg, 4 hr, animals and Mean): 296.644 ng/mL and 223.937 ng/mL and 407.415 ng/mL
- Plasma Concentration ([4]; PO 25 mg/kg, 4 hr, animals and Mean, mean): 309.33 ng/mL
- Plasma Concentration ([4]; PO 25 mg/kg, 6 hr, animals and Mean): 103.285 ng/mL and 90.8093 ng/mL and 131.398 ng/mL
- Plasma Concentration ([4]; PO 25 mg/kg, 6 hr, animals and Mean, mean): 108.50 ng/mL
- Plasma Concentration ([4]; PO 25 mg/kg, 8 hr, animals and Mean): 80.4445 ng/mL and 66.2777 ng/mL
- Plasma Concentration ([4]; PO 25 mg/kg, 8 hr, animals and Mean, mean): 64.76 ng/mL
- Plasma Concentration ([4]; PO 25 mg/kg, 24 hr, animals and Mean): 25.1348 ng/mL and 17.5136 ng/mL and 20.2154 ng/mL
- Plasma Concentration ([4]; PO 25 mg/kg, 24 hr, animals and Mean, mean): 20.95 ng/mL
- % F ([4]; male rats, oral dose 25 mg/kg): 65%
- AUC(0-t) ([4]; male rats, oral dose 25 mg/kg): 7677 ± 328
- Cmax ([4]; male rats, oral dose 25 mg/kg): 3751 ± 1068 ng/mL
